Laboratory results taken from publication PMC9679702, “BI 456906: Discovery and preclinical pharmacology of a novel GCGR/GLP-1R dual agonist with robust anti-obesity efficacy” (Molecular Metabolism, 2022).
pEC50: −log10 of the molar value. Values belong to the compound of their own block, whether it stands above or below them.

Key:
Human GCGR [1] = target: T1, Human GCGR (Homo sapiens, UniProt P47871); test: Ex vivo bioactivity assay, HEK cells with human GCGR and CRE-luciferase, 100% mouse plasma; conditions: DIO mice, plasma at study end, maximal dose of 30 nmol/kg
T1 sequence (P47871 26-477): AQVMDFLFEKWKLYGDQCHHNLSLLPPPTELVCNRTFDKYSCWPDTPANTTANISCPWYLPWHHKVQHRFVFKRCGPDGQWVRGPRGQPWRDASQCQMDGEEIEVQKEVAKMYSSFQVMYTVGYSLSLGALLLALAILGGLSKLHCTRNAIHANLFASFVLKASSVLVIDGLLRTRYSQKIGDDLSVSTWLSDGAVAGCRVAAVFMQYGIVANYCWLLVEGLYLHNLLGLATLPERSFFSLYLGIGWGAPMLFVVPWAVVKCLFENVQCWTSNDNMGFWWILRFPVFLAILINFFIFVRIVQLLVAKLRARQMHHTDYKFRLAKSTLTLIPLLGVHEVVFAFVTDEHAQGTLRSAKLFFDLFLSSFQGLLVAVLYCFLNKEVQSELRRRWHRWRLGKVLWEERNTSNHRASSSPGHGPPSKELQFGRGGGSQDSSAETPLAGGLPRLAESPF

Human GLP-1R [2] = target: T2, Human GLP-1R (Homo sapiens, UniProt P43220); test: CRE-induced luciferase activity, HEK293 CRE-luc2P cells, human GLP-1R, in plasma; type: cell-based; conditions: n = 3
T2 sequence (P43220 24-463): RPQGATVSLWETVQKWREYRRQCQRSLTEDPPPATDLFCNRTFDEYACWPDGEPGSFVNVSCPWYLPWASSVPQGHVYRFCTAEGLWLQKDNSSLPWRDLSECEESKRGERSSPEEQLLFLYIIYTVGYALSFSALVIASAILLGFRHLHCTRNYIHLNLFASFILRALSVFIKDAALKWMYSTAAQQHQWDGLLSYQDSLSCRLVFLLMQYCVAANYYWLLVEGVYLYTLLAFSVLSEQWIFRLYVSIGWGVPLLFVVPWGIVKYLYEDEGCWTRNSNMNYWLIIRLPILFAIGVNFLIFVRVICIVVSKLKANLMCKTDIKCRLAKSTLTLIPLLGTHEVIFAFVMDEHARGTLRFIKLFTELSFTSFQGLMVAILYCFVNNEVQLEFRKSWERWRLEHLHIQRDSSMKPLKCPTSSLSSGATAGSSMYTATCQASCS

endogenous mouse GLP-1R = target: T3, endogenous mouse GLP-1R (Mus musculus, UniProt O35659); test: cAMP stimulation in mouse insulinoma MIN6 cells; type: cell-based
T3 construct: The EC50 for the endogenous mouse GLP-1R was assessed in the insulinoma cell line MIN6; endogenous in cells; host or cells: MIN6 mouse insulinoma cells
T3 sequence (O35659 22-463): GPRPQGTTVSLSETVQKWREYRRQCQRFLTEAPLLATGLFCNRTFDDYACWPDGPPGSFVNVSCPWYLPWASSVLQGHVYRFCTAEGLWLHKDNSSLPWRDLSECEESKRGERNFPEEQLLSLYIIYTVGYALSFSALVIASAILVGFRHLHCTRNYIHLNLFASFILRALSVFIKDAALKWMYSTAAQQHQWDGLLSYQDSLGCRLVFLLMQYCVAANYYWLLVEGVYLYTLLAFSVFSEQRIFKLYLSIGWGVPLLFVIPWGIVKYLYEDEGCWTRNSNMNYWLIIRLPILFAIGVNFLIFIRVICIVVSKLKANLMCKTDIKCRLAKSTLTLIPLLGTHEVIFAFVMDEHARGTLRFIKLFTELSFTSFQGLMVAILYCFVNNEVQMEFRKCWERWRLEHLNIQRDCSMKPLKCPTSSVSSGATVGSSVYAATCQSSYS

Pharmacokinetics in mice = type: in vivo
Method: (§1) For pharmacokinetic analysis, male C57BL/6NRj mice (Janvier, France) were given a single intravenous (IV) or subcutaneous (SC) BI 456906 dose (20 nmol/kg; N = 3 per route). In addition, male Beagle dogs received an IV or SC dose of 5 nmol/kg or 10 nmol/kg (N = 3) BI 456906, respectively. Plasma samples were generated at different time points post dosing and stored at −20 °C until further analysis. Plasma concentrations of BI 456906 were measured using a liquid chromatography/tandem mass spectrometry (LC/MS/MS) method with a calibration range of 0.5–1000 nM on a QTRAP 6500+ (Sciex, Framingham, MA, USA). Samples were pre-treated with ethanol for protein precipitation before the analysis.

Human GLP-1R [3] = target: T2, Human GLP-1R; test: Ex vivo bioactivity assay, HEK cells with human GLP-1R and CRE-luciferase, 100% mouse plasma
Human GLP-1R [4] = target: T2, Human GLP-1R; test: cAMP stimulation in CHO-K1 cells expressing human GLP-1R (AlphaScreen); type: cell-based; conditions: read-out: functional potency (EC50) in CHO-K1 cells, GLP-1R
[5] = Pharmacokinetics in Beagle dogs; type: in vivo; conditions: dog, SC injection, 10 nmol/kg, male Beagle dogs, N = 3, plasma, LC/MS/MS (Table S1)
Method: as §1

endogenous GCGR [6] = target: T4, endogenous GCGR (Homo sapiens, UniProt P47871); test: cAMP stimulation in primary human hepatocytes; type: cell-based; conditions: 0.1% BSA, Figure 1B, read-out: cAMP pEC50±SD, Human Hepatocytes (converted)
T4 construct: endogenous in cells; host or cells: primary human hepatocytes
T4 sequence (P47871 26-477): as the sequence (P47871 26-477) above

GLP-1R [7] = target: T5, GLP-1R (Mus musculus, UniProt O35659); test: Inhibition of acute food intake in lean NMRI mice; type: in vivo; conditions: single SC dose, 24 h food intake
T5 construct: The acute potency of BI 456906 in engaging the GLP-1R was tested in lean mice after single dosing; tissue Janvier Labs; host or cells: whole animal: lean wild-type NMRI, C57BL6/J or B6J mice
T5 sequence (O35659 22-463): T3 sequence (O35659 22-463)

GLP-1R [8] = target: T5, GLP-1R; test: Oral glucose tolerance test in lean mice, single dosing; type: in vivo
endogenous GCGR [9] = target: T6, endogenous GCGR (Mus musculus, UniProt Q61606); test: cAMP stimulation in primary mouse hepatocytes; type: cell-based; conditions: 0.1% BSA, Figure 1B, read-out: cAMP pEC50±SD, Mouse Hepatocytes (converted)
T6 construct: endogenous in cells; host or cells: primary mouse hepatocytes
T6 sequence (Q61606 27-485): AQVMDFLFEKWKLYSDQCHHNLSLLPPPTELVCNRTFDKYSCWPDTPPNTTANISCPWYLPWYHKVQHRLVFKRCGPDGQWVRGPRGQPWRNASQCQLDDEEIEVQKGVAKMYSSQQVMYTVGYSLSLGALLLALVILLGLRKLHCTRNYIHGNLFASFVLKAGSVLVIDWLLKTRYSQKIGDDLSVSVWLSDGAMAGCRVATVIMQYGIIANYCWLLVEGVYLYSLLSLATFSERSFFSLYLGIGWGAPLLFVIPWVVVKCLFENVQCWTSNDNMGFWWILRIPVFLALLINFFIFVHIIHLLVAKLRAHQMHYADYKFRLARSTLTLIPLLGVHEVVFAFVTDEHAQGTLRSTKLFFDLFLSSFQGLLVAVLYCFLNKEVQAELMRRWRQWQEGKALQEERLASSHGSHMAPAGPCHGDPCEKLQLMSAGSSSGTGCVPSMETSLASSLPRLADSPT

GLP-1R [10] = target: T5, GLP-1R; test: Intraperitoneal glucose tolerance test in lean mice, single dosing; type: in vivo; conditions: read-out: ED50 ipGTT
GLP-1R [11] = target: T5, GLP-1R; test: Acute gastric emptying (acetaminophen) in lean mice; type: in vivo
GCGR = target: T7, GCGR (Rattus norvegicus, UniProt P30082); test: Inhibition of glycogen synthesis in primary rat hepatocytes (14C-glucose incorporation); type: cell-based; conditions: 0.1% BSA, 22.5 mM glucose, 180 min, Figure 1B, read-out: GSi pIC50±SD, Rat Hepatocytes (converted)
T7 construct: endogenous in cells; host or cells: primary rat hepatocytes
T7 sequence (P30082 27-485): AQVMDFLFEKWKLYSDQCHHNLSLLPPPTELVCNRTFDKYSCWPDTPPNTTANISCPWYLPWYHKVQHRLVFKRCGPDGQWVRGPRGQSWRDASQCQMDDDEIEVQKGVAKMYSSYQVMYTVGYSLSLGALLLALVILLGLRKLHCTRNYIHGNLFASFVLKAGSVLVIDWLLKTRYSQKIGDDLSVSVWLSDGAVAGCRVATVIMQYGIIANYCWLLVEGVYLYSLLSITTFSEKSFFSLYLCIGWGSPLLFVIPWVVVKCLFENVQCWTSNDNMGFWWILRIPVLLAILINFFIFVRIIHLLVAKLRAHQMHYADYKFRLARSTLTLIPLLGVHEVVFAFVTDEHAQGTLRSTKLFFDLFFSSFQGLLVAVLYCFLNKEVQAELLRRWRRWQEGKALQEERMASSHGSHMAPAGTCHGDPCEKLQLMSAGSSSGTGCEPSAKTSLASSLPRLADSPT

Human GCGR [12] = target: T1, Human GCGR; test: cAMP stimulation in CHO-K1 cells expressing human GCGR (AlphaScreen); type: cell-based; conditions: read-out: functional potency (EC50) in CHO-K1 cells, GCGR
endogenous GCGR [13] = target: T8, endogenous GCGR (Rattus norvegicus, UniProt P30082); test: cAMP stimulation in primary rat hepatocytes; type: cell-based; conditions: 0.1% BSA, Figure 1B, read-out: cAMP pEC50±SD, Rat Hepatocytes (converted)
T8 construct: endogenous in cells; host or cells: primary rat hepatocytes
T8 sequence (P30082 27-485): as above

[14] = Energy expenditure study in diet-induced obese mice (indirect calorimetry, telemetry); type: in vivo
Method: Male C57BL/6J mice were obtained from Charles River Laboratories (Sulzfeld, Germany) at age 6–7 weeks. Animals were housed in groups of five in individually ventilated cages with a 12 h light/dark cycle (06:00–18:00) and were acclimatized for 1 week with ad libitum feeding. Animals were then fed a 45% HFD for 18 or 30 weeks, before randomization to groups with similar average bodyweight at Day −1. Animals were dosed QD with SC vehicle (25 mM phosphate-buffered saline) or BI 456906 (5, 10, or 20 nmol/kg) for 9 days, with energy metabolism, activity, and core body temperature measured each day. On Day 10, mice were sacrificed by cervical dislocation after a final bleeding by puncture of the retrobulbar venous plexus.
Energy metabolism was measured by indirect calorimetry. […] The mass flow of air through the respiratory cages and the concentrations of O2 and CO2 in inspired and expired air were measured every 10 min. […] Energy expenditure was analyzed by ANCOVA (see 2.16) for animals kept in single housing (dose groups 5 and 10 nmol/kg), applying statistical analysis using a general linear model framework including bodyweight as a covariate. […] Therefore, the regression-based ANCOVA was not calculated. Core body temperature and activity were measured by sensors (model 10TA10TA-F10; Data Sciences International, New Brighton, MA, USA) implanted in the peritoneal cavities. […]

Human GCGR [15] = target: T1, Human GCGR; test: CRE-induced luciferase activity, HEK293 CRE-luc2P cells, human GCGR, in plasma; type: cell-based; conditions: for pEC50: n = 3
[16] = target: human glucagon receptor (human) (UniProt P47871)
Sequence of human glucagon receptor (human) (P47871 26-477): as the sequence (P47871 26-477) above

[17] = target: human glucagon-like peptide-1 receptor (human) (UniProt P43220)
Sequence of human glucagon-like peptide-1 receptor (human) (P43220 24-463): as the sequence (P43220 24-463) above

[18] = target: human glucagon receptor (human) (UniProt P47871); remark: listed apart in the source
[19] = target: endogenous mouse GLP-1R (mouse (endogenous in MIN6)) (UniProt O35659)
[20] = target: human glucagon-like peptide-1 receptor (human) (UniProt P43220); remark: listed apart in the source

Compound: CC[C@H](C)[C@H](NC(=O)[C@H](Cc1ccccc1)NC(=O)[C@H](CC(=O)O)NC(=O)[C@H](CCCCN)NC(=O)[C@H](C)NC(=O)[C@H](C)NC(=O)[C@H](CCCNC(=N)N)NC(=O)[C@H](CCC(=O)O)NC(=O)[C@H](CC(=O)O)NC(=O)[C@H](CC(C)C)NC(=O)[C@H](Cc1ccc(O)cc1)NC(=O)[C@H](CCCCN)NC(=O)[C@H](CO)NC(=O)[C@H](Cc1ccc(O)cc1)NC(=O)[C@H](CC(=O)O)NC(=O)[C@H](CO)NC(=O)[C@@H](NC(=O)[C@H](Cc1ccccc1)NC(=O)[C@@H](NC(=O)CNC(=O)[C@H](CCC(N)=O)NC(=O)C1(NC(=O)[C@@H](N)Cc2c[nH]cn2)CCC1)[C@@H](C)O)[C@@H](C)O)C(=O)N[C@@H](CCCCNC(=O)CNC(=O)CNC(=O)[C@H](CO)NC(=O)CNC(=O)[C@H](CO)NC(=O)CNC(=O)CC[C@H](NC(=O)CCCCCCCCCCCCCCCCC(=O)O)C(=O)O)C(=O)N[C@@H](Cc1c[nH]c2ccccc12)C(=O)N[C@@H](CC(C)C)C(=O)N[C@@H](CCC(=O)O)C(=O)N[C@@H](CO)C(=O)N[C@@H](C)C(N)=O [BI 456906]
- ex vivo bioequivalence over EC50, GCGR (Human GCGR [1]): < 100 fold
- pEC50 (Human GLP-1R [2]; Human GLP-1R HEK293 Cre-Luc EC50, Mouse Plasma 100%, 100% mouse plasma, 4 h 37 °C): 8.80
- pEC50 (Human GLP-1R [2]; Human GLP-1R HEK293 Cre-Luc pEC50±SD, Human Plasma 0.5%, 0.5% human plasma): 10.83
- pEC50 (Human GLP-1R [2]; Human GLP-1R HEK293 Cre-Luc pEC50±SD, Human Plasma 100%, 100% human plasma): 9.00
- pEC50 (Human GLP-1R [2]; Human GLP-1R HEK293 Cre-Luc pEC50±SD, Mouse Plasma 0.5%, 0.5% mouse plasma): 11.12
- pEC50 (Human GLP-1R [2]; Human GLP-1R HEK293 Cre-Luc pEC50±SD, Mouse Plasma 100%, 100% mouse plasma): 8.79
- pEC50 (endogenous mouse GLP-1R): 9.44
- terminal half-life in mouse plasma compared with semaglutide (in words) (Pharmacokinetics in mice; mouse pharmacokinetic profiles (Table S1)): longer terminal half-life
- Tmax (Pharmacokinetics in mice; mouse, SC injection, 20 nmol/kg single dose, male C57BL/6NRj mice, N = 3, plasma, LC/MS/MS (Table S1)): 7 h
- MRT (Pharmacokinetics in mice; mouse, SC injection, 20 nmol/kg single dose, male C57BL/6NRj mice, N = 3, plasma, LC/MS/MS (Table S1), read-out: mean residence time): 44 h
- pEC50 (Human GLP-1R [3]): 8.62
- ex vivo bioequivalence over EC50, GLP-1R (Human GLP-1R [3]; DIO mice, plasma at study end, maximal dose of 30 nmol/kg): less than 1000 fold
- pEC50 (Human GLP-1R [4]): 9.48
- Tmax [5]: 51 h
- MRT ([5]; read-out: mean residence time): 140 h
- EC50 (endogenous GCGR [6]): 537 nM
- ED50 (GLP-1R [7]): 0.09 µmol/kg
- ED50 (GLP-1R [8]): 0.0021 µmol/kg
- EC50 (endogenous GCGR [9]): 407 nM
- ED50 (GLP-1R [10]): 0.004 µmol/kg
- ED50 (GLP-1R [11]; mouse, sc): 0.041 µmol/kg
- inhibition of gastric emptying, effective doses (in words) (GLP-1R [11]; reduced acetaminophen excursion, single SC dose, lean mice): effective only at higher doses of 100 and 300 nmol/kg
- IC50 (GCGR): 0.437 nM
- pEC50 (Human GCGR [12]): 9.28
- EC50 (endogenous GCGR [13]): 18.6 nM
- energy expenditure (in words) ([14]; DIO mice, 5, 10 or 20 nmol/kg SC QD for 9 days, indirect calorimetry): dose-dependent increase in energy expenditure
- core body temperature and activity (in words) ([14]; DIO mice, therapeutic doses, implanted sensors): did not increase core body temperature or activity
- fold less potent at the GCGR in relation to endogenous glucagon (Human GCGR [15]; 0.5% human and mouse plasma): ~6 fold
- pEC50 (Human GCGR [15]; Human GCGR HEK293 Cre-Luc EC50, Human Plasma 0.5%, 0.5% human plasma in KRBH, 4 h 37 °C): 9.54
- pEC50 (Human GCGR [15]; Human GCGR HEK293 Cre-Luc EC50, Human Plasma 100%, 100% human plasma, 4 h 37 °C): 8.08
- pEC50 (Human GCGR [15]; Human GCGR HEK293 Cre-Luc EC50, Mouse Plasma 0.5%, 0.5% mouse plasma in KRBH, 4 h 37 °C): 9.77
- pEC50 (Human GCGR [15]; Human GCGR HEK293 Cre-Luc EC50, Mouse Plasma 100%, 100% mouse plasma, 4 h 37 °C): 7.80
- pEC50 (Human GCGR [15]; Human GCGR HEK293 Cre-Luc pEC50±SD, Human Plasma 0.5%, 0.5% human plasma): 9.54
- pEC50 (Human GCGR [15]; Human GCGR HEK293 Cre-Luc pEC50±SD, Human Plasma 100%, 100% human plasma): 8.08
- pEC50 (Human GCGR [15]; Human GCGR HEK293 Cre-Luc pEC50±SD, Mouse Plasma 0.5%, 0.5% mouse plasma): 9.77
- pEC50 (Human GCGR [15]; Human GCGR HEK293 Cre-Luc pEC50±SD, Mouse Plasma 100%, 100% mouse plasma): 7.81

- EC50 in the CRE-luciferase assay, HEK293 CRE-luc2P cells expressing recombinant GCGR, 0.5% human plasma [16]: 0.29 nM
- EC50 in the CRE-luciferase assay, HEK293 CRE-luc2P cells expressing recombinant GCGR, 0.5% mouse plasma [16]: 0.17 nM
- EC50 in the CRE-luciferase assay, HEK293 CRE-luc2P cells expressing recombinant GCGR, 100% human plasma [16]: 8.3 nM
- EC50 in the CRE-luciferase assay, HEK293 CRE-luc2P cells expressing recombinant GCGR, 100% mouse plasma [16]: 16 nM
- EC50 in the CRE-luciferase assay, HEK293 CRE-luc2P cells expressing recombinant GLP-1R, 100% human plasma [17]: 1 nM
- EC50 in the CRE-luciferase assay, HEK293 CRE-luc2P cells expressing recombinant GLP-1R, 100% mouse plasma [17]: 1.6 nM
- EC50 of cAMP generation (AlphaScreen cAMP assay), CHO-K1 cells expressing human GCGR, 0.1% BSA [18]: 0.52 nM
- EC50 of cAMP generation, mouse insulinoma MIN6 cells (endogenous receptor) [19]: 0.36 nM
- EC50 of cAMP generation (AlphaScreen cAMP assay), CHO-K1 cells expressing human GLP-1R, 0.1% BSA [20]: 0.33 nM
Compound: BI 456906 (peptide)

- EC50 of cAMP generation, mouse insulinoma MIN6 cells (endogenous receptor) [19]: 0.06 nM
Compound: glucagon-like peptide-1
